Results published in patent publication US9694016B2 (Novartis AG, priority 2013, dated 2017).
Read-outs that look alike come from different tables or passages of the source.

Target: b-Raf (V600E) (Homo sapiens (Human), UniProt P15056, V600E)
Settings: read-out: b-Raf IC-50, AlphaScreen
[1] = 60 min pre-incubation, reaction 3 hours at room temperature
[2] = 60 min pre-incubation, 3 hours reaction

b-Raf (V600E), sequence (P15056 whole entry V600E): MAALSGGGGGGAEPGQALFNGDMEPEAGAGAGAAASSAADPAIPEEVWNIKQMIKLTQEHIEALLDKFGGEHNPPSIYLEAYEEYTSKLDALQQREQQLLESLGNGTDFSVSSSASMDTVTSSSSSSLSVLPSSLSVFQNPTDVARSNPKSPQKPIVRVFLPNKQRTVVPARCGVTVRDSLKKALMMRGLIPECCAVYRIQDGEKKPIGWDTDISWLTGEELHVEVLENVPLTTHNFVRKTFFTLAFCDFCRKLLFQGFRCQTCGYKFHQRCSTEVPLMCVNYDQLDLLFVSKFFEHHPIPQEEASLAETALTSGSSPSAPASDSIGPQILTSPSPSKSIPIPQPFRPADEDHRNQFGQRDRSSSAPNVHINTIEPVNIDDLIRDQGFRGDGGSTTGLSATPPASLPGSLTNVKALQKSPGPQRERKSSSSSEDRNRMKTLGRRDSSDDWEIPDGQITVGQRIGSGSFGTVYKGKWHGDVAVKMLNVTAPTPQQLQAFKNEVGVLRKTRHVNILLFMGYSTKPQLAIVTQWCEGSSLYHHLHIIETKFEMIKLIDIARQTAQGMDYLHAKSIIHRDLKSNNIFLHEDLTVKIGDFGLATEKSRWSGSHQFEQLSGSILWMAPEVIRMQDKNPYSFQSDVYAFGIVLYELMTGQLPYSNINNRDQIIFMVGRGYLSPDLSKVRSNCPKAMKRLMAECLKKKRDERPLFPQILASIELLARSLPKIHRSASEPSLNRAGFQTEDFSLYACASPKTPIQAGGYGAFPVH

| Compound | IC50 [1] | IC50 (Table 2, 3 hours reaction) | IC50 [2] |
| --- | --- | --- | --- |
| Cc1ncc(NC(=O)c2cccc(C(F)(F)F)c2)cc1-c1cc(N2CCNCC2)nc(N2CCOCC2)c1 [Example 1129, N-(2-methyl-2′-morpholino-6′-(piperazin-1-yl)-[3,4′-bipyridin]-5-yl)-3-(trifluoromethyl)benzamide] | 4.64 nM |  |  |
| CCOc1nnc(-c2cc(C(=O)Nc3ccnc(C(C)(F)F)c3)ccc2C)cc1N1CCOCC1 [Example 1020, N-(2-(1,1-difluoroethyl)pyridin-4-yl)-3-(6-ethoxy-5-morpholinopyridazin-3-yl)-4-methylbenzamide] | 7.72 nM |  |  |
| CCOc1ncc(-c2cc(NC(=O)c3cnnc(C(C)(C)C#N)c3)cnc2C)cc1N1CCOC[C@H]1C [Example 303, (R)-6-(2-cyanopropan-2-yl)-N-(6′-ethoxy-2-methyl-5′-(3-methylmorpholino)-[3,3′-bipyridin]-5-yl)pyridazine-4-carboxamide] |  | 100 nM |  |
| Cc1ncc(NC(=O)c2ccnc(C(C)(C)O)c2)cc1-c1cc(N2CCOCC2)n2nccc2n1 [Example 797, 2-(2-hydroxypropan-2-yl)-N-(6-methyl-5-(7-morpholinopyrazolo[1,5-a]pyrimidin-5-yl)pyridin-3-yl)isonicotinamide] |  |  | 24.7 nM |
| Cc1ccc(NC(=O)c2ccnc(C(C)(F)F)c2)cc1-c1cc(N2CCOC[C@@H]2C)c(=O)n(C)n1 [Example 664, (S)-2-(1,1-difluoroethyl)-N-(4-methyl-3-(1-methyl-5-(3-methylmorpholino)-6-oxo-1,6-dihydropyridazin-3-yl)phenyl)isonicotinamide] |  |  | 2.9 nM |
| CCOc1nnc(-c2cc(NC(=O)c3ccnc(C(C)(C)C#N)c3)ccc2C)cc1N1CCOC[C@@H]1C [Example 572, (S)-2-(2-cyanopropan-2-yl)-N-(3-(6-ethoxy-5-(3-methylmorpholino)pyridazin-3-yl)-4-methylphenyl)isonicotinamide] |  |  | 3.8 nM |
| CCN1CCN(c2cc(C(=O)Nc3cnc(C)c(-c4cc(N5CCOCC5)c(=O)n(C)c4)c3)cc(C(F)(F)F)c2)CC1 [Example 402, N-(1′,2-dimethyl-5′-morpholino-6′-oxo-1′,6′-dihydro-[3,3′-bipyridin]-5-yl)-3-(4-ethylpiperazin-1-yl)-5-(trifluoromethyl)benzamide] |  | 100 nM |  |
| Cc1ccc(NC(=O)c2cccc(C(C)(C)S(C)(=O)=O)c2)cc1-c1cc(N2CCOCC2)nc(N2CC(O)C2)c1 [Example 1099, N-(3-(2-(3-hydroxyazetidin-1-yl)-6-morpholinopyridin-4-yl)-4-methylphenyl)-3-(2-(methylsulfonyl)propan-2-yl)benzamide] | 18.8 nM |  |  |
| CNCCN(C)c1cc(C(=O)Nc2ccc(C)c(-c3cc(N4CCOCC4)c(=O)n(C)c3)c2)ccn1 [Example 457, 2-(methyl(2-(methylamino)ethyl)amino)-N-(4-methyl-3-(1-methyl-5-morpholino-6-oxo-1,6-dihydropyridin-3-yl)phenyl)isonicotinamide] |  |  | 30.5 nM |
| CCN1CCN(c2cc(C(=O)Nc3ccc(C)c(-c4cc(N5CCOCC5)c(=O)n(C)n4)c3)cc(C(F)(F)F)c2)CC1 [Example 649, 3-(4-ethylpiperazin-1-yl)-N-(4-methyl-3-(1-methyl-5-morpholino-6-oxo-1,6-dihydropyridazin-3-yl)phenyl)-5-(trifluoromethyl)benzamide] |  |  | 4.6 nM |
| Cc1ccc(NC(=O)c2cnnc(C3CC3)c2)cc1-c1cc(OC2CCOCC2)nc(N2CCOCC2)c1 [Example 1154, 6-cyclopropyl-N-(4-methyl-3-(2-morpholino-6-((tetrahydro-2H-pyran-4-yl)oxy)pyridin-4-yl)phenyl)pyridazine-4-carboxamide] | 0.6 nM |  |  |
| Cc1ncc(NC(=O)c2cccc(C(F)F)c2)cc1-c1cc(N2CCOCC2)c(=O)n(C)c1 [Example 394, 3-(difluoromethyl)-N-(1′,2-dimethyl-5′-morpholino-6′-oxo-1′,6′-dihydro-[3,3′-bipyridin]-5-yl)benzamide] |  | 3.6 nM |  |
| CCc1cccc(NC(=O)c2ccc(C)c(-c3cc(N4CCOCC4)c(=O)n(C)c3)c2)c1 [Example 435, N-(3-ethylphenyl)-4-methyl-3-(1-methyl-5-morpholino-6-oxo-1,6-dihydropyridin-3-yl)benzamide] |  | 2.4 nM |  |
| Cc1ccc(NC(=O)c2ccnc(C(C)(C)C#N)c2)cc1-c1cn2ccnc2c(N2CCOCC2)n1 [Example 860, 2-(2-cyanopropan-2-yl)-N-(4-methyl-3-(8-morpholinoimidazo[1,2-a]pyrazin-6-yl)phenyl)isonicotinamide] | 11.6 nM |  |  |
| Cc1ncc(NC(=O)c2ccnc(C(C)(C)F)c2)cc1-c1cc(N2CCOCC2)c(OC2CCOCC2)nn1 [Example 630, 2-(2-fluoropropan-2-yl)-N-(6-methyl-5-(5-morpholino-6-((tetrahydro-2H-pyran-4-yl)oxy)pyridazin-3-yl)pyridin-3-yl)isonicotinamide] |  |  | 2.9 nM |
| Cc1ccc(NC(=O)c2ccnc(C(C)(F)F)c2)cc1-c1cc(N2CCOCC2)nc(OC2CNC2)n1 [Example 779, N-(3-(2-(azetidin-3-yloxy)-6-morpholinopyrimidin-4-yl)-4-methylphenyl)-2-(1,1-difluoroethyl)isonicotinamide] |  |  | 2.2 nM |
| Cc1ncc(NC(=O)c2cccc(C3(C#N)CC3)c2Cl)cc1-c1cc(N2CCOCC2)c(=O)n(C)c1 [Example 403, 2-chloro-3-(1-cyanocyclopropyl)-N-(1′,2-dimethyl-5′-morpholino-6′-oxo-1′,6′-dihydro-[3,3′-bipyridin]-5-yl)benzamide] |  | 62 nM |  |
| Cc1ncc(NC(=O)c2ccnc(C3CC3)c2)cc1-c1cnc(OC2CC3(COC3)C2)c(N2CCOCC2)c1 [Example 966, N-(6′-(2-oxaspiro[3.3]heptan-6-yloxy)-2-methyl-5′-morpholino-[3,3′-bipyridin]-5-yl)-2-cyclopropylisonicotinamide] | 1.35 nM |  |  |
| Cc1ccc(NC(=O)c2ccnc(C(F)(F)F)c2)cc1-c1cc(N2CCOCC2)nc(N2CC(O)C2)c1 [Example 1060, N-(3-(2-(3-hydroxyazetidin-1-yl)-6-morpholinopyridin-4-yl)-4-methylphenyl)-2-(trifluoromethyl)isonicotinamide] | 3.93 nM |  |  |
| Cc1cn(-c2cc(NC(=O)c3ccc(C)c(-c4cc(N5CCOCC5)c(=O)n(C)c4)c3)cc(C(F)(F)F)c2)cn1 [Example 428, 4-methyl-N-(3-(4-methyl-1H-imidazol-1-yl)-5-(trifluoromethyl)phenyl)-3-(1-methyl-5-morpholino-6-oxo-1,6-dihydropyridin-3-yl)benzamide] |  | 10.1 nM |  |
| Cc1ncc(NC(=O)c2ccnc(C(C)(C)O)c2)cc1-c1cc(N2CCOCC2)c2nccn2n1 [Example 870, 2-(2-hydroxypropan-2-yl)-N-(6-methyl-5-(8-morpholinoimidazo[1,2-b]pyridazin-6-yl)pyridin-3-yl)isonicotinamide] | 7.5 nM |  |  |
| Cn1cc(-c2cc(NC(=O)c3cccc(C(F)(F)F)c3)cnc2Cl)cc(N2CCOCC2)c1=O [Example 407, N-(2-chloro-1′-methyl-5′-morpholino-6′-oxo-1′,6′-dihydro-[3,3-bipyridin]-5-yl)-3-(trifluoromethyl)benzamide] |  | 1.4 nM |  |
| CCOc1nc(-c2cc(NC(=O)c3ccnc(C(F)(F)F)c3)ccc2C)cc(N2CCOCC2)n1 [Example 762, N-(3-(2-ethoxy-6-morpholinopyrimidin-4-yl)-4-methylphenyl)-2-(trifluoromethyl)isonicotinamide] |  |  | 0.7 nM |
